Assay results from patent publication US6696432B1, “Combination of dehydroepiandrosterone and aromatase inhibitors and use of this combination to produce a medicament for treating relative and absolute androgen deficiency in men” (Schering Aktiengesellschaft, priority 1996, dated 2004).

Tests used:
patients with BPH [1] = assay: Longer-term clinical studies with atamestane in BPH patients, hormone levels; format: in vivo, human
Description: (§1) In several clinical studies, atamestane was administered at varying dosages and over periods of up to 48 weeks to men in this age group to treat an existing BPH. […] Table 5 provides the testosterone/estrogen ratio before and after the administration of atamestane for patient populations from 4 studies and 7 treatment groups.
The administration of atamestane consistently results in a resetting of the testosterone/estradiol balance in favor of the androgenic component. This action was detectable over the entire observation period up to a maximum of 48 weeks of treatment.

patients with BPH [2] = assay: 48-week atamestane treatment (100 mg, 300 mg vs placebo), testosterone serum concentration; format: in vivo, human; conditions: for Testosterone Serum Concentration Δ % (X ± SD): 48 weeks
Excerpt: (§2) Tables 3 and 4 show the results after a 48-week treatment.

[3] = system: men with BPH (average age above 60 years); assay: Testosterone/estradiol (T/E2) ratio before and after atamestane, 4 clinical studies, 7 treatment groups; format: in vivo, human
Description: Gradual lowering of the estrogen concentration induces a counterregulatory stimulation of androgen synthesis. To a certain extent, there is an endogenic testosterone substitution, by which the androgen/estrogen balance is again brought back to the “youthful” range. This substantiates the results of the longer-term treatment of older men (average age above 60 years) with the selective aromatase inhibitor atamestane.
as §1
Assuming that the testosterone dominance that was reduced by 30-50% in the age group of patients over 60 years compared to the younger years (relative androgen deficiency) caused the symptoms of “male menopause,” the goal is thus to restore the original “balance of power” between androgens and estrogens by administering a preferably selective aromatase inhibitor by stimulating endogenic testosterone substitution without the necessity of supplying androgens exogenically. Based on the understanding that the ratio prevailing in age is the result of a 30-50% reduction compared to the youthful values, i.e., is always 50-70% of the previous value, the corresponding “youthful” previous value can be calculated for each individual patient. A patient with a testosterone/estradiol ratio of 230:1 must accordingly be adjusted to a new balance in the range between […] to 460:1, so that a preceding 30 or 50% reduction is compensated for.

patients with BPH [4] = assay: 24-week four-way study of atamestane versus placebo, testosterone serum concentration; format: in vivo, human; conditions: for Testosterone Serum Concentration Δ % (median ± SD): 24 weeks
patients with BPH [5] = assay: 48-week atamestane treatment (400 mg vs placebo), testosterone serum concentration; format: in vivo, human; conditions: daily dose 400 mg
Excerpt: as §2

[6] = system: patients with prostate cancer; conditions: pharmacological doses; cited from earlier work

SMILES: CC1=CC(=O)C=C2CC[C@@H]3[C@H](CC[C@]4(C)C(=O)CC[C@@H]34)[C@@]12C [atamestane, 1-Methyl-androsta-1,4-diene-3,17-dione]
- peripheral estrogen reduction (patients with BPH [1]; daily doses of 100 mg-600 mg): equally intense
- testosterone concentration after longer-term treatment (patients with BPH [1]; treatment lasting 24 to 48 weeks, patients with BPH): significant increase
- Testosterone Serum Concentration Δ % (X ± SD) (patients with BPH [2]; daily dose 100 mg): 19.0 ± 36.8%
- Testosterone Serum Concentration After 48 Weeks (patients with BPH [2]; daily dose 100 mg, previous value 5.1): 5.9 ng/mL
- Testosterone Serum Concentration Δ % (X ± SD) (patients with BPH [2]; daily dose 300 mg): 41.7 ± 46.4%
- Testosterone Serum Concentration After 48 Weeks (patients with BPH [2]; daily dose 300 mg, previous value 4.7): 6.6 ng/mL
- T/E2 Ratio % Δ ([3]; 100 mg, 24 weeks): +48%
- T/E2 Ratio % Δ ([3]; 100 mg, 48 weeks): +41%
- T/E2 Ratio % Δ ([3]; 200 mg t.i.d., 8 weeks): +46%
- T/E2 Ratio % Δ ([3]; 300 mg, 24 weeks): +58%
- T/E2 Ratio % Δ ([3]; 300 mg, 48 weeks): +46%
- T/E2 Ratio % Δ ([3]; 400 mg, 48 weeks): +54%
- T/E2 Ratio % Δ ([3]; 600 mg, 24 weeks): +61%
- achieved T/E2 versus calculated "youthful" target range ([3]; daily dose of 100 mg): target range is generally readily met
- achieved T/E2 versus calculated "youthful" target range ([3]; higher dosages (above 100 mg daily)): somewhat above the target range
- alteration of the testosterone/estradiol ratio ([3]; varying dosages, periods of up to 48 weeks): significant alteration of the testosterone/estradiol ratio in favor of testosterone
- Testosterone Serum Concentration Δ % (median ± SD) (patients with BPH [4]; daily dose 100 mg): 29.57 ± 34.70%
- Testosterone Serum Concentration After 24 Weeks (patients with BPH [4]; daily dose 100 mg, previous value 4.41): 5.57 ng/mL
- Testosterone Serum Concentration Δ % (median ± SD) (patients with BPH [4]; daily dose 300 mg): 40.88 ± 156.12%
- Testosterone Serum Concentration After 24 Weeks (patients with BPH [4]; daily dose 300 mg, previous value 4.50): 6.15 ng/mL
- Testosterone Serum Concentration Δ % (median ± SD) (patients with BPH [4]; daily dose 600 mg): 41.19 ± 37.62%
- Testosterone Serum Concentration After 24 Weeks (patients with BPH [4]; daily dose 600 mg, previous value 3.78): 5.40 ng/mL
- Testosterone Serum Concentration Δ % (X ± SD) (patients with BPH [5]; 48 weeks): 42.9 ± 53.5%
- Testosterone Serum Concentration After 48 Weeks (patients with BPH [5]; previous value 4.2): 5.4 ng/mL

SMILES: CC/C(=C(/CC)c1ccc(O)cc1)c1ccc(O)cc1 [diethylstilbestrol]
- testosterone level in the serum [6]: castration level
